Marks after values point to notes of the source that are not given here.
Legend:
[1] = system: MRSA 01, MRSA 15, MRSA 16; assay: Mutational frequency evaluation, Example 1; assay type: cell-based, Staphylococcus aureus; conditions: for Resistance mutation rate at MIC × 1: tested against one strain: MRSA 01
Experimental: Adequate dilutions were plated on plates without the compound.
(§1) Viable cell growth was enumerated after 48 hours of incubation at 37° C.
(§2) Ten replicates were carried out for each strain and fusidic acid, mupirocin and retapamulin were used as controls for the MRSA 01 strain.

[2] = system: MRSA 01, MRSA 15, MRSA 16; assay: Mutational frequency evaluation, Example 3; assay type: cell-based, Staphylococcus aureus; conditions: for Frequency of spontaneous mutations conferring resistance: strain MRSA 01, average of 10 replicates; for mutation frequency at MIC×1: no colony grew
Experimental: Strains were conserved in Luria Bertani (LB) Broth supplemented with glycerol 15% (v/v) at −80° C., and reactivated by isolation on LB agar plates. Strains were cultivated aerobically in Mueller Hinton (MH) Broth-cation adjusted at 37° C.
The frequency of spontaneous single-step mutations was determined on the 3 different strains as described by Drago et al. (2005) and Pannu et al. (2011). […] Adequate dilutions were plated on plates without the compound.
as §1
The spontaneous resistance frequency for an isolate-drug combination was calculated from the number of colonies that grew on plates containing drug versus the number of colonies that grew on drug-free agar.
as §2

SMILES | Resistance mutation rate at MIC × 1 [1] | mutational frequency at MIC×1 ([2]; MRSA 01) | mutational frequency at MIC×10 ([2]; MRSA 01) | Frequency of spontaneous mutations conferring resistance ([2]; concentration MIC × 1) | Frequency of spontaneous mutations conferring resistance ([2]; concentration MIC × 2) | Frequency of spontaneous mutations conferring resistance ([2]; concentration MIC × 4) | Frequency of spontaneous mutations conferring resistance ([2]; concentration MIC × 10) | mutational frequency at MIC×1 ([1]; text summary of Table 4) | mutation frequency at MIC×1 ([2]; MRSA 15) | mutation frequency at MIC×1 ([2]; MRSA 16) | mutational frequency at MIC×1 ([2]; all tested strains (MRSA 01, MRSA 15, MRSA 16), below the detection limit)
CC(=O)O[C@H]1C[C@@]2(C)[C@@H](C[C@@H](O)[C@H]3[C@@]4(C)CC[C@@H](O)[C@@H](C)[C@@H]4CC[C@@]32C)/C1=C(\CCC=C(C)C)C(=O)O [Fusidic acid] | ≥4 × 10^−5* | ≥ 4.10^−5 | 3.10^−7 | ≥4.10^−5 | 2.10^−5 | 1.10^−6 | 3.10^−7 |  |  |  | 
C/C(=C\C(=O)OCCCCCCCCC(=O)O)C[C@@H]1OC[C@H](C[C@@H]2O[C@H]2[C@@H](C)[C@H](C)O)[C@@H](O)[C@H]1O [Mupirocin] | ≥4 × 10^−5* |  |  | ≥4.10^−5 | 8.10^−8 | 1.10^−8 | ≤4.10^−9 |  |  |  | 
O=C(Nc1ccc([N+](=O)[O-])cc1Cl)c1cc(Cl)ccc1O [Niclosamide, 5-chloro-N-(2-chloro-4-nitrophenyl)-2-hydroxybenz-amide] |  |  |  | <4 × 10^−9* | <4 × 10^−9* | <4 × 10^−9* | <4 × 10^−9* | < 4×10^−10 | < 3×10^−8 | < 1×10^−7 | < 4.10^−9
C=C[C@]1(C)C[C@@H](OC(=O)CS[C@@H]2C[C@H]3CC[C@@H](C2)N3C)[C@]2(C)[C@H](C)CC[C@]3(CCC(=O)[C@H]32)[C@@H](C)[C@@H]1O [Retapamulin] | ≥4 × 10^−5* |  |  | ≥4.10^−5 | 3.10^−7 | 2.10^−8 | <4.10^−9* |  |  |  | 
